Data published in the SangsterLogP compilation.

Test: method code SF, from Hansch, C. & Leo, A. (1987). Log P database [Dataset]. Pomona College Medicinal Chemistry Project.

With `COc1ccc(-c2nc3ccccc3[nH]2)c(OC)c1` as the molecule, how does the logD (pH 8.0) read?
Its logD is 2.59.

For `N#CN=[N+]([O-])c1cccc(Cl)c1`, which logP is on record?
The logP was 2.4.

Which logD (pH 13.0) does the source give for `NNc1ccc(Br)cc1` here?
Its logD is 1.39.

With `COC(=O)C[C@](O)(CCC(C)(C)O)C(=O)O[C@@H]1C(OC)=C[C@]23CCCN2CCc2cc4c(cc2[C@H]13)OCO4` as the molecule, how does the logP read?
The logP was 0.65.

Which logP does the source give for `NC(=O)CBr` here?
Its logP is -0.52.

Which logP does the source give for `CC(=O)C(=Cc1ccc(C)cc1)C(C)=O` here?
Its logP is 2.14.

With `COc1cccc([N+]([O-])=NC#N)c1` as the molecule, how does the logP read?
The logP was 2.24.

For `FC(F)Cl`, which logP is on record?
The logP was 1.08.

With `CCCCC1OC(=O)c2cc(O)ccc21` (stereo unspecified) as the molecule, how does the logP read?
Its logP is 3.12.

With `Nc1nc(N)c2ccccc2n1` as the molecule, how does the logD (pH 13.0) read?
The logD was 1.

Which logP does the source give for `COc1cc(OCCOC(=O)c2ccccc2)ccc1C=NO` here?
Its logP is 2.94.

With `NC(=S)c1ccccc1` as the molecule, how does the logP read?
The logP was 1.49.

Which logP does the source give for `CCOC(=O)C(=Cc1ccc(Cl)cc1Cl)C(C)=O` here?
Its logP is 3.67.

Which logP does the source give for `CCOC(=O)c1csc(C=Cc2ccc([N+](=O)[O-])o2)n1` here?
Its logP is 1.3.

With `COC1=C[C@@]23CCCN2CCc2cc4c(cc2[C@@H]3[C@@H]1O)OCO4` as the molecule, how does the logP read?
Its logP is 0.84.

For `CC1CCC(=O)CC1`, which logP is on record?
Its logP is 1.38.

With `O=S1(=O)NC=Nc2cc(Cl)ccc21` as the molecule, how does the logP read?
Its logP is 1.01.

For `O=C(c1ccncc1)c1ccc([N+](=O)[O-])cc1`, which logP is on record?
The logP was 1.76.

Which logP does the source give for `Cn1ccc(=O)c2ccccc21` here?
The logP was 0.44.

Which logP does the source give for `O=C(O)COc1ccc(F)c(I)c1` here?
Its logP is 2.42.

With `CCOCCOC(=O)C(C#N)=C(CC)NCc1ccc([N+](=O)[O-])cc1` as the molecule, how does the logP read?
The logP was 2.64.

For `O=C(Nc1ccc(Cl)c(Cl)c1)C(F)F`, which logP is on record?
The logP was 3.18.

Which logP does the source give for `NC(=O)c1cccs1` here?
Its logP is 0.52.

With `CC1(C)OC(=O)c2ccccc21` as the molecule, how does the logP read?
The logP was 1.73.

Which logP does the source give for `O=[N+]([O-])c1ccc2[nH]c(CCCCc3nc4cc([N+](=O)[O-])ccc4[nH]3)nc2c1` here?
The logP was 2.45.

For `Fc1c(F)c(F)c(F)c(F)c1F`, which logP is on record?
The logP was 2.22.

For `COC1OC(=O)c2ccccc21` (stereo unspecified), which logP is on record?
Its logP is 1.

Which logP does the source give for `COc1cc(C=O)ccc1OCCOC(=O)c1ccc(Cl)cc1` here?
The logP was 3.71.

Which logP does the source give for `Cc1ccc2[nH]c(=O)[nH]c(=O)c2c1` here?
Its logP is 0.55.

For `CCC(C)c1ccccc1OC(=O)N(C)C` (stereo unspecified), which logP is on record?
The logP was 3.31.

Which logP does the source give for `CN(N=O)C(=O)N[C@H]1C(O)O[C@H](CO)[C@@H](O)[C@@H]1O` (stereo partly specified) here?
The logP was -1.45.

Which logP does the source give for `Cc1ccc2ncccc2c1` here?
Its logP is 2.57.

With `CC1=Nc2cc([N+](=O)[O-])c(Cl)cc2S(=O)(=O)N1` as the molecule, how does the logP read?
The logP was 1.42.

For `CCOCCOC(=O)C(C#N)=C(CC)Nc1ccc(N)cc1`, which logP is on record?
Its logP is 2.27.

For `CC(=O)c1ccco1`, which logP is on record?
Its logP is 0.52.

With `CC(=O)Oc1cccc(C(F)(F)F)c1` as the molecule, how does the logP read?
Its logP is 2.63.

Which logP does the source give for `CC(C)n1cc(C(C)(C)C)nc1SSc1nc(C(C)(C)C)cn1C(C)C` here?
Its logP is 4.1.

For `CCc1ccc(OC(C)=O)cc1`, which logP is on record?
The logP was 2.56.

For `C/C=C/c1ccccc1`, which logP is on record?
Its logP is 3.35.

Which logP does the source give for `N#Cc1c[nH]c2ccccc12` here?
The logP was 2.32.

For `CC(=O)NNC(=O)c1ccccn1`, which logP is on record?
The logP was -0.59.

Which logP does the source give for `COC(=O)c1cc(Oc2ccc(Cl)cc2Cl)ccc1[N+](=O)[O-]` here?
Its logP is 4.48.

For `CCCCC(=O)c1ccc[nH]1`, which logP is on record?
The logP was 2.42.

Which logD (pH 3.0) does the source give for `CC(=O)OCC1=C(C(=O)O)N2C(=O)[C@@H](NC(=O)CBr)[C@H]2SC1` here?
Its logD is -0.7.

With `CC(=O)Oc1ccc(N=C2C=CC(=O)C=C2)cc1` as the molecule, how does the logP read?
Its logP is 1.43.

For `O=[N+]([O-])c1ccc2[nH]c(CCCCCCc3nc4cc([N+](=O)[O-])ccc4[nH]3)nc2c1`, which logP is on record?
Its logP is 1.51.

Which logP does the source give for `O=C(NN=Cc1ccccc1)c1ccccc1` here?
Its logP is 2.56.

For `CCC(=O)c1ccncc1`, which logP is on record?
The logP was 0.77.

For `C#CC(C)(C)O`, which logP is on record?
The logP was 0.28.

With `CN(C)C(=O)Cc1ccco1` as the molecule, how does the logP read?
Its logP is 0.01.

Which logP does the source give for `[O-][N+](=Cc1c(Cl)cccc1Cl)c1ccccc1` here?
The logP was 2.16.

With `Cn1nnc2ccccc2c1=O` as the molecule, how does the logP read?
Its logP is 0.84.

Which logP does the source give for `CCOc1ccc(C(N)=O)cc1` here?
Its logP is 1.3.

Which logP does the source give for `CC(=O)Nc1ccc(CN(C)/N=N/c2ccc(C(=O)O)cc2)cc1` here?
The logP was 3.35.

With `CC(=O)c1ccc(C(C)=O)cc1` as the molecule, how does the logD (pH 7.0) read?
The logD was 1.34.

Which logP does the source give for `O=S1(=O)NC(c2ccccc2)=Nc2ccccc21` here?
Its logP is 1.78.

With `O=c1[nH]cc(I)c(=O)[nH]1` as the molecule, how does the logP read?
Its logP is 0.04.

With `COP(=O)(OC)OC` as the molecule, how does the logP read?
Its logP is -0.52.

For `N#C/C=C/c1ccccc1`, which logP is on record?
The logP was 1.96.

With `CN(C)/N=N/c1ccccc1C(N)=O` as the molecule, how does the logD (pH 7.4) read?
The logD was 1.73.

With `COc1cc(OC)c(OC)cc1CC(C)N` (stereo unspecified) as the molecule, how does the logP read?
The logP was 1.74.

With `COc1ccc(OC(=O)CNC(=O)c2ccccc2)cc1` as the molecule, how does the logP read?
The logP was 2.28.

With `CCCCOC(=O)c1cccc(C(=O)OCCCC)c1` as the molecule, how does the logP read?
The logP was 4.26.

For `Nc1ccccc1Br`, which logP is on record?
The logP was 2.11.

For `O=C1CCCN1CCOc1ccc([N+](=O)[O-])cc1`, which logP is on record?
Its logP is 1.33.

For `CCC=O`, which logP is on record?
Its logP is 0.59.

With `COc1cccc(Cc2cnc(N)nc2N)c1OC` as the molecule, how does the logD (pH 13.0) read?
Its logD is 1.62.

With `CCSc1ccccc1` as the molecule, how does the logP read?
The logP was 3.2.

Which logP does the source give for `CC(=O)N(C)/N=N/c1ccc(F)cc1` here?
The logP was 2.77.

With `O=C(O)c1cc(=O)c2cc3c(cc2o1)CCCC3` as the molecule, how does the logP read?
Its logP is 3.4.

Which logD (pH 2.0) does the source give for `Cn1cc(C(=O)O)c2ccccc21` here?
The logD was 1.76.

Which logD (pH 3.0) does the source give for `Cc1nnc(SCC2=C(C(=O)O)N3C(=O)C(NC(=O)Cc4cccs4)C3SC2)s1` (stereo unspecified) here?
Its logD is 0.67.

With `O=C1C(NCCO)=C(N2CC2)C(=O)C(NCCO)=C1N1CC1` as the molecule, how does the logP read?
Its logP is -1.48.

With `CCOP(=O)(N=C1SCC(C)S1)OCC` (stereo unspecified) as the molecule, how does the logP read?
Its logP is 1.04.

With `OCc1ccoc1` as the molecule, how does the logP read?
Its logP is 0.3.

For `Nc1ncnc2c1ncn2[C@@H]1O[C@H](CO)[C@@H](O)[C@@H]1O`, which logP is on record?
The logP was -1.11.

Which logP does the source give for `CCCCOC(=O)c1ccc(C(=O)OCCCC)cc1` here?
Its logP is 5.53.

Which logP does the source give for `O=C1C(N2CCN(CCO)CC2)=C(N2CC2)C(=O)C(N2CCN(CCO)CC2)=C1N1CC1` here?
Its logP is -0.73.

With `Cc1c(N2CCCC2)c(=O)n(-c2ccccc2)c(=O)n1C` as the molecule, how does the logD (pH 7.4) read?
Its logD is 2.26.

For `CCCCSc1ccccc1OC(=O)NC`, which logP is on record?
The logP was 2.98.

With `O=C(O)CS` as the molecule, how does the logP read?
The logP was 0.09.

Which logP does the source give for `Brc1cccs1` here?
The logP was 2.75.

Which logP does the source give for `CC(=O)Nc1ccc(OC(C)=O)cc1` here?
The logP was 0.8.

With `CNP(=O)(OC)Oc1cccc(C(C)(C)C)c1` (stereo unspecified) as the molecule, how does the logP read?
The logP was 2.65.

For `O=S(=O)(c1ccccc1)C(F)(F)F`, which logP is on record?
Its logP is 2.69.

Which logD (pH 7.4) does the source give for `Cc1[nH]c(=O)[nH]c(=O)c1N(CCF)CCCl` here?
Its logD is 0.85.

For `CCCC1CC(C(=O)NC(C(C)Cl)C2OC(SC)C(O)C(O)C2O)N(CC)C1` (stereo unspecified), which logD (pH 12.0) is on record?
The logD was 2.51.

Which logP does the source give for `CC(=O)Nc1ccc2oc(C)c(C)c(=O)c2c1` here?
Its logP is 1.79.

With `COc1cc(C=NO)ccc1O` as the molecule, how does the logP read?
The logP was 2.16.

Which logP does the source give for `O=S1(=O)N=C(C2CCCC2)Nc2ccccc21` here?
Its logP is 1.83.

For `O=C(CO)OCc1ccccc1`, which logP is on record?
Its logP is 1.12.

For `CS(=O)(=O)c1ccc(Cl)cc1`, which logD (pH 7.0) is on record?
The logD was 1.06.

Which logP does the source give for `CNC(=S)NC` here?
Its logP is -0.24.

With `Cn1c(SCC2=C(C(=O)O)N3C(=O)C(NC(=O)Cc4cccs4)C3SC2)nnc(O)c1=O` (stereo unspecified) as the molecule, how does the logD (pH 3.0) read?
The logD was -0.52.

With `O=C(O)COc1ccc(Cl)c(Br)c1` as the molecule, how does the logP read?
The logP was 2.75.

With `COc1ccc(C(C)=O)c(N)c1` as the molecule, how does the logP read?
Its logP is 1.76.

Which logP does the source give for `c1ccc(-n2cccc2)cc1` here?
Its logP is 3.08.

For `COc1cc(C=O)ccc1OCCOC(=O)c1cccc(Cl)c1`, which logP is on record?
The logP was 3.67.

Which logP does the source give for `c1ccc2c(c1)OCO2` here?
Its logP is 2.08.

With `Nc1ccc([N+](=O)[O-])cc1N` as the molecule, how does the logP read?
The logP was 0.88.

For `CCCCC`, which logP is on record?
Its logP is 3.23.

Which logP does the source give for `CC[C@H]1OC(=O)[C@H](C)[C@@H](O[C@H]2C[C@@](C)(OC)[C@@H](O)[C@H](C)O2)[C@H](C)[C@@H](O[C@@H]2O[C@H](C)C[C@H](NC)[C@H]2O)[C@](C)(O)C[C@@H](C)C(=O)[C@H](C)[C@@H](O)[C@]1(C)O` here?
The logP was 2.21.

For `C=CCOc1ccccc1`, which logP is on record?
The logP was 2.94.

Which logP does the source give for `N#CN=[N+]([O-])c1ccc(F)cc1` here?
The logP was 1.8.

With `Cc1ccccc1C#N` as the molecule, how does the logP read?
The logP was 2.21.

For `O=c1[nH]c2ccccc2[nH]c1=O`, which logP is on record?
The logP was 0.2.

For `O=C(O)c1ncccc1O`, which logD (pH 2.0) is on record?
The logD was -1.27.

Which logP does the source give for `Cc1cccc([N+]([O-])=NC#N)c1` here?
Its logP is 2.49.

Which logP does the source give for `CN(C)c1cnnc(N(C)C)c1` here?
The logP was 0.84.

For `OCCCCCl`, which logP is on record?
Its logP is 0.85.

With `COc1ccc(OC)c(Cc2cnc3nc(N)nc(N)c3c2C)c1` as the molecule, how does the logD (pH 13.0) read?
The logD was 2.13.
